Test [1] deals with T1, glutathione-S-transferase (GST) tagged LXRbeta LBD (ligand binding domain) (Homo sapiens, UniProt P55055).
T1 construct: purchased Invitrogen pv4658.pps
T1 sequence (P55055 222-460 limits assumed): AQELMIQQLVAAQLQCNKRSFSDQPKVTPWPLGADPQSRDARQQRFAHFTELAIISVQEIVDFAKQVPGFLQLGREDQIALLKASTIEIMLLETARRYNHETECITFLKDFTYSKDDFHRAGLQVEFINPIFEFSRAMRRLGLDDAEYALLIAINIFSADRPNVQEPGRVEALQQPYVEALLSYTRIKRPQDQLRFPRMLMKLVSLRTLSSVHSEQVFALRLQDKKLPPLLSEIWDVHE
The test is described as follows: LanthaScreen TR-FRET Liver X Receptor Coactivator Assay, co-activator recruitment to LXRbeta LBD. The format is biochemical. In a few lines:
(§1)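 Efficacy (Emax) and inflection-point potency were scaled to reference agonist T0901317, acting on both LXR subtypes. Ligand-driven coactivator peptide recruitment was detected by TR-FRET after room-temperature incubation with terbium anti-GST antibody.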
(In general: In TR-FRET formats the signal depends on donor and acceptor labels being close together.)

Test [2] deals with T2, glutathione-S-transferase (GST) tagged LXRalpha LBD (ligand binding domain) (Homo sapiens, UniProt Q13133).
T2 construct: purchased Invitrogen pv4655
T2 sequence (Q13133 209-447 limits assumed): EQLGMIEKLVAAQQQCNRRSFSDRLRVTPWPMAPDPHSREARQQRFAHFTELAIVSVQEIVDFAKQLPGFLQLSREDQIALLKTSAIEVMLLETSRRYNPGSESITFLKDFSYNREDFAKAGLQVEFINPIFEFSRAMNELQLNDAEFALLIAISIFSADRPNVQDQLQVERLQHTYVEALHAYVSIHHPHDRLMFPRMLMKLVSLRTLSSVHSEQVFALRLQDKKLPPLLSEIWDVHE
Briefly: LanthaScreen TR-FRET Liver X Receptor Coactivator Assay, co-activator recruitment to LXRalpha LBD. The format is biochemical. In a few lines:
as §1

[3] abbreviates: efficacy at max dose, in relation to reference dual agonist T0901317, read-out: LXR beta Activity @ max dose (%).
[4] abbreviates: potency (Inflection Point, IP), co-activator recruitment to LXRalpha LBD, in relation to T0901317, read-out: LXR alpha IP.
Setting [5] is: potency (Inflection Point, IP), co-activator recruitment to LXRbeta LBD, in relation to T0901317, read-out: LXR beta IP.
[6] abbreviates: efficacy at max dose, in relation to reference dual agonist T0901317, read-out: LXR alpha Activity @ max dose (%).
[7] abbreviates: potency (Inflection Point, IP), co-activator recruitment to LXRalpha LBD, in relation to T0901317.

Read-outs that look alike come from different tables or passages of the source.

`COc1cccc(S(=O)(=O)N2CCC(CC3CCN(c4ccc(C(=O)N(C)C)c(Cl)c4)CC3)CC2)c1` [Example 13-11, 2-chloro-4-[4({1-[(3-methoxyphenyl)-sulfonyl]piperidin-4-yl}methyl)piperidin-1-yl]-N,N-dimethyl-benzamide]: the EC50 in test [1] (co-activator recruitment to GST-LXRbeta LBD, TR-FRET, read-out: LXR beta IP (Inflection Point, potency)) was determined as 98 nM; in test [2] (co-activator recruitment to GST-LXRalpha LBD, TR-FRET, read-out: LXR alpha IP (Inflection Point, potency)), 733 nM. The Emax in test [1] (efficacy in relation to reference dual agonist T0901317, read-out: LXR beta Activity @ max dose) stood at 64%; in test [2] (efficacy in relation to reference dual agonist T0901317, read-out: LXR alpha Activity @ max dose), 23%.
`CN(C)C(=O)c1ccc(N2CCC(OC3CCN(C(=O)[C@](O)(c4ccccc4)C(F)(F)F)CC3)CC2)cc1Cl` [Example 2-11, 2-chloro-N,N-dimethyl-4-[4-({1-[(2R)-3,3,3-trifluoro-2-hydroxy-2-phenylpropanoyl]piperidin-4-yl}oxy)piperidin-1-yl]benzamide]: the Emax in test [1] (setting [3]) is 83%. Besides, the “LXR alpha Activity @ max dose (%)” value in test [2] (efficacy at max dose, in relation to reference dual agonist T0901317) is listed as 33%. Also, in test [2] (setting [4]), the EC50 amounted to 1110 nM.
As for `CN(C(=O)c1ccc(N2CCC(CC3CCN(C(=O)[C@](O)(c4ccccc4)C(F)(F)F)CC3)CC2)cc1Cl)C1CC1` [Example 4-11, 2-chloro-N-cyclopropyl-N-methyl-4-[4-({1-[(2R)-3,3,3-trifluoro-2-hydroxy-2-phenylpropanoyl]piperidin-4-yl}methyl)piperidin-1-yl]benzamide], the Emax in test [1] (setting [3]) was determined as 74%; in test [2] (setting [6]) it was 38%. Also, the values for the EC50 in test [1] (setting [5]) and in test [2] (setting [4]) were 43 nM and 402 nM, respectively.
The like results for `CN(C)C(=O)c1ccc(N2CCC(CC3CCN(C(=O)[C@](O)(c4cccc(Br)c4)C(F)(F)F)CC3)CC2)cc1` [Example 2-143, 4-[4-({1-[(2R)-2-(3-bromo-phenyl)-3,3,3-trifluoro-2-hydroxy-propanoyl]piperidin-4-yl}methyl)piperidin-1-yl]-N,N-dimethyl-benzamide] were, in that order, 69%, 23%, 46 nM and 413 nM.
Regarding `O=C(c1ccc(N2CCC(CC3CCN(C(=O)[C@](O)(c4cc(Cl)cc(Cl)c4)C(F)(F)F)CC3)CC2)cc1Cl)N1CCC[C@@H]1CO` [Example 4-23, (2R)-3-(4-{[1-(3-chloro-4-{[(2R)-2-(hydroxymethyl)pyrrolidin-1-yl]carbonyl}phenyl)piperidin-4-yl]methyl}piperidin-1-yl)-2-(3,5-dichlorophenyl)-1,1,1-trifluoro-3-oxopropan-2-ol], the Emax was determined as 30% in test [1] (setting [3]) and 4% in test [2] (setting [6]). In addition, the EC50 in test [1] (setting [5]) was 51 nM. For the same compound, in test [2] (setting [7]), the “LXR alpha IP (nM)” value was “NO IP”.
On to `COc1ccccc1C1(C(=O)N2CCC(CC3CCN(c4ccc(C(=O)N(C)C)c(Cl)n4)CC3)CC2)CCC1` [Example 7-57, 2-chloro-6-{4-[(1-{[1-(2-methoxyphenyl)cyclobutyl]carbonyl}piperidin-4-yl)methyl]piperidin-1-yl}-N,N-dimethylpyridine-3-carboxamide], for which the Emax is 123% in test [1] (setting [3]) and 39% in test [2] (setting [6]). Besides, the EC50 worked out at 16 nM in test [1] (setting [5]) and 438 nM in test [2] (setting [4]).
Regarding `CN(C)C(=O)c1ccc(N2CCC(OC3CCN(C(=O)[C@](O)(c4ccccc4)C(F)(F)C(F)(F)F)CC3)CC2)cc1Cl` [Example 2-22, 2-chloro-N,N-dimethyl-4-[4-({1-[(2R)-3,3,4,4,4-pentafluoro-2-hydroxy-2-phenylbutanoyl]piperidin-4-yl}oxy)piperidin-1-yl]benzamide], the Emax in test [1] (setting [3]) turned out to be 131%; in test [2] (setting [6]), 51%. Besides, the EC50 in test [1] (setting [5]) came out at 21 nM; in test [2] (setting [4]) it was 900 nM.
The like results for `CNC(=O)c1ccc(N2CCC(OC3CCN(C(=O)C4(c5ccccc5F)CCCC4)CC3)CC2)cc1Cl` [Example 7-27, 2-chloro-4-{4-[(1-{[1-(2-fluorophenyl)cyclopentyl]carbonyl}piperidin-4-yl)oxy]piperidin-1-yl}-N-methylbenzamide] were, in that order, 113%, 27%, 446 nM and 4390 nM.
As for `CN(C)C(=O)c1ccc(N2CCC(CC3CCN(C(=O)[C@](N)(c4ccccc4)C(F)(F)F)CC3)CC2)nc1Cl` [Example 7-111, 6-[4-({1-[(2R)-2-amino-3,3,3-trifluoro-2-phenylpropanoyl]piperidin-4-yl}methyl)piperidin-1-yl]-2-chloro-N,N-dimethylpyridine-3-carboxamide], the values for the Emax in test [1] (setting [3]) and in test [2] (setting [6]) were 151% and 49%, respectively. Moreover, the figures for the EC50 in test [1] (setting [5]) and in test [2] (setting [4]) were 49 nM and 1750 nM, respectively.
On to `CCc1cccc([C@@](O)(C(=O)N2CCC(CC3CCN(c4ccc(C(=O)NC)c(Cl)c4)CC3)CC2)C(F)(F)F)c1` [Example 7-120, 2-chloro-4-[4-({1-[(2R)-2-(3-ethylphenyl)-3,3,3-trifluoro-2-hydroxypropanoyl]piperidin-4-yl}methyl)piperidin-1-yl]-N-methylbenzamide], for which the Emax stood at 60% in test [1] (setting [3]) and 12% in test [2] (setting [6]). Also, the EC50 in test [1] (setting [5]) amounted to 22 nM. For the same compound, the “LXR alpha IP (nM)” value in test [2] (setting [7]) is “NO IP”.
In the case of `CN(C)C(=O)c1ccc(N2CCC(CC3CCN(C(=O)C(O)(c4cccnc4)C(F)(F)F)CC3)CC2)cc1Cl` (stereo not shown) [Example 2-90, 2-chloro-N,N-dimethyl-4-(4-{[1-(3,3,3-trifluoro-2-hydroxy-2-pyridin-3-ylpropanoyl)piperidin-4-yl]methyl}piperidin-1-yl)benzamide], the Emax is 99% in test [1] (setting [3]) and 46% in test [2] (setting [6]). In addition, the values for the EC50 in test [1] (setting [5]) and in test [2] (setting [4]) were 78 nM and 3550 nM, respectively.
As to `CNC(=O)c1ccc(N2CCC(CC3CCN(C(=O)C(O)(c4cccc(C)c4)C(F)(F)F)CC3)CC2)cc1Cl` (stereo not shown) [Example 7-36, 2-chloro-N-methyl-4-[4-({1-[3,3,3-trifluoro-2-hydroxy-2-(3-methylphenyl)propan-oyl]piperidin-4-yl}methyl)piperidin-1-yl]benzamide], the Emax in test [1] (setting [3]) is 65%; in test [2] (setting [6]), 19%. Further, the values for the EC50 in test [1] (setting [5]) and in test [2] (setting [4]) were 28 nM and 762 nM, respectively.
With `CN(C)C(=O)c1cnc(N2CCC(CC3CCN(C(=O)[C@](O)(c4ccccc4)C(F)(F)F)CC3)CC2)cc1Cl` [Example 7-2, 4-chloro-N,N-dimethyl-6-[4-({1-[(2R)-3,3,3-trifluoro-2-hydroxy-2-phenylpropanoyl]piperidin-4-yl}methyl)piperidin-1-yl] pyridine-3-carboxamide], the Emax in test [1] (setting [3]) was 32%; in test [2] (setting [6]), 36%. Also, the EC50 in test [1] (setting [5]) worked out at 4670 nM. Further, the “LXR alpha IP (nM)” value in test [2] (setting [7]) is given as “NO IP”.
In the case of `CNC(=O)c1ccc(N2CCC(CC3CCN(C(=O)C(O)(C(C)C)C(F)(F)F)CC3)CC2)nc1Cl` (stereo not shown) [Example 7-143, 2-chloro-6-[4-({1-[2-hydroxy-3-methyl-2-(trifluoromethyl)butanoyl]piperidin-4-yl}methyl)piperidin-1-yl]-N-methylpyridine-3-carboxamide], the Emax in test [1] (setting [3]) was found to be 104%; in test [2] (setting [6]) it was 58%. Besides, the EC50 stood at 327 nM in test [1] (setting [5]) and 1310 nM in test [2] (setting [4]).
With `COc1cc(Cl)cc([C@](O)(C(=O)N2CCC(CC3CCN(c4ccc(C(=O)N(C)C)c(Cl)n4)CC3)CC2)C(F)(F)F)c1` [Example 7-108, 2-chloro-6-[4-({1-[(2S)-2-(3-chloro-5-methoxyphenyl)-3,3,3-trifluoro-2-hydroxypropanoyl]piperidin-4-yl}methyl)piperidin-1-yl]-N,N-dimethylpyridine-3-carboxamide], the Emax in test [1] (setting [3]) is 101%; in test [2] (setting [6]), 10%. Moreover, in test [1] (setting [5]), the EC50 stood at 47 nM. Besides, the “LXR alpha IP (nM)” value in test [2] (setting [7]) is “NO IP”.
As for `CC(C)c1cccc([C@@](O)(C(=O)N2CCC(CC3CCN(c4ccc(C(=O)N(C)C)cc4)CC3)CC2)C(F)(F)F)c1` [Example 2-125, N,N-dimethyl-4-{4-[(1-{(2R)-3,3,3-trifluoro-2-hydroxy-2-[3-(1-methyl-ethyl)phenyl]propanoyl}piperidin-4-yl)methyl]piperidin-1-yl}benzamide], the figures for the Emax in test [1] (setting [3]) and in test [2] (setting [6]) were 64% and 15%, respectively. In addition, the values for the EC50 in test [1] (setting [5]) and in test [2] (setting [4]) were 52 nM and 459 nM, respectively.
On to `COc1cccc([C@@](O)(C(=O)N2CCC(CC3CCN(c4ccc(C(=O)N(C)C)c(Cl)n4)CC3)CC2)C(F)(F)C(F)(F)F)c1` [Example 7-79, 2-chloro-N,N-dimethyl-6-[4-({1-[(2R)-3,3,4,4,4-pentafluoro-2-hydroxy-2-(3-methoxyphenyl)butanoyl]piperidin-4-yl}methyl)piperidin-1-yl]pyridine-3-carboxamide], for which the results for the Emax in test [1] (setting [3]) and in test [2] (setting [6]) were 86% and 22%, respectively. In addition, the EC50 in test [1] (setting [5]) was 9 nM; in test [2] (setting [4]), 429 nM.
